“And” between values parts separate entries of the source, which are not always exact repeats. Equal entries are not always repeated. Where two headings read alike, the source gives them in different places.
Assays:
[1] = molecular target: T1, chymotrypsin-like activity of the purified rabbit 20S proteasome (Oryctolagus cuniculus, UniProt G1T4Q9); test: 20S proteasome inhibition assay, fluorogenic substrate Suc-Leu-Leu-Val-Tyr-AMC; type: biochemical; details: for proteasome inhibitory activity, SAR statement in words: chymotrypsin-like activity, compared with lead or analogue; for decrease of proteasome inhibition activity: 14u, 14v vs linear-chain analogues, 14q vs lead compound 10a;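 on all read-outs here: enzyme and 20 µM substrate incubated 1 h at 37 °C in Tris-HCl buffer pH 7.6, fluorogenic read-out, inhibition calculated against vehicle control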
T1 sequence (G1T4Q9 1-263): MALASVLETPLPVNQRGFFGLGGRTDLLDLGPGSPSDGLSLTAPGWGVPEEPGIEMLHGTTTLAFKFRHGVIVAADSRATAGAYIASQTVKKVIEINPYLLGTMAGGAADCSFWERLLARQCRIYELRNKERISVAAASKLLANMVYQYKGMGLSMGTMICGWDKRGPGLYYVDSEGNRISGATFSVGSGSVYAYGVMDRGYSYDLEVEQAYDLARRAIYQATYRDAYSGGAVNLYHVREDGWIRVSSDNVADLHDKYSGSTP

CT-L = molecular target: T2, CT-L (Homo sapiens, UniProt P28074); test: Inhibition of CT-L in cell culture; type: cell-based
T2 construct: endogenous in cells
T2 sequence (P28074 60-263): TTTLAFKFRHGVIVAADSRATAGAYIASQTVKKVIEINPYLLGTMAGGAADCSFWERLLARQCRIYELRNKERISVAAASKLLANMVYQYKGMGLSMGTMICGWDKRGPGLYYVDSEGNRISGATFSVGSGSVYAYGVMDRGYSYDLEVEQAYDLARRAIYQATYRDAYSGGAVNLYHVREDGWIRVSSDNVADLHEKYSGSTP

[2] = system: human tumor cell lines (breast, pancreatic and ovarian); test: Selective inhibition of human tumor cell lines over normal cells; type: cell-based; details: three human tumor cell lines (breast, pancreatic, ovarian) over normal cells
[3] = individual determinations (runs M-1096, M-1098, M-1099, AK or dated), read-out: Chymotrypsin-like Activity IC50
[4] = mean of the individual determinations, read-out: Chymotrypsin-like Activity IC50 (μM), mean ± spread (n)
[5] = read-out: IC50 (μM)* In Cell culture against CT-L
[6] = 30 μM, runs M-1096, M-1098, M-1099

IC50 [1, 3] | IC50 [1, 4] | IC50 (CT-L; [5]) | melting point | Compound | further results
2.28 µM and 2.12 µM and 2.4 µM | 2.27 µM | 8.9 µM and 6.9 µM | – | O=C(O)CSC1=CC(=NS(=O)(=O)c2cccs2)c2ccccc2C1=O (stereo in doubt) [YG2-176, (Z)-2-(1-oxo-4-(thiophen-2-ylsulfonylimino)-1,4-dihydronaphthalen-2-ylthio)acetic acid] | proteasome inhibitory activity, SAR statement in words [1]: comparable inhibitory potency
– | – | – | 140 to 142 °C | COC(=O)CCSC1=C/C(=N\S(=O)(=O)c2cccs2)c2ccccc2C1=O [8b, Methyl 3-(1-oxo-4-(thiophen-2-ylsulfonylimino)-1,4-dihydronaphthalen-2-ylthio) propanoate] | –
– | – | – | 117 to 119 °C | COC(=O)CCSc1cc(NS(=O)(=O)c2cccs2)c2ccccc2c1O [9b, Methyl 3-(1-hydroxy-4-(thiophene-2-sulfonamido)naphthalen-2-ylthio)propanoate] | –
– | – | – | 166 to 168 °C | CCOC(=O)CSc1cc(NS(=O)(=O)c2ccc(-c3ccccc3)cc2)c2ccccc2c1O [14r, Ethyl 2-(4-(biphenyl-4-ylsulfonamido)-1-hydroxynaphthalen-2-ylthio)acetate] | –
1.05 µM and 2.4 µM and 2.67 µM | – | 25 µM and 17.4 µM | – | O=C(O)CSc1cc(NS(=O)(=O)c2cc(Cl)c(Cl)s2)c2ccccc2c1O [HL4-098-2, 2-(4-(4,5-dichlorothiophene-2-sulfonamido)-1-hydroxynaphthalen-2-ylthio)acetic acid] | –
– | 2.2 µM | 8.9 µM | – | O=C(O)CSc1cc(NS(=O)(=O)c2cccs2)c2ccccc2c1O [HLM008182, 2-(1-hydroxy-4-(thiophene-2-sulfonamido)naphthalen-2-ylthio)acetic acid] | proteasome inhibitory activity, SAR statement in words [1]: comparable proteasome inhibition activity; IC50 ([1]; sample kept r.t. 2 weeks in DMSO, read-out: Chymotrypsin-like Activity IC50 (μM), r.t. 2 weeks in DMSO (converted)): 2.76 µM and 1.64 µM; IC50 (CT-L; listed as YG1-066, read-out: IC50 (μM)* In Cell culture against CT-L): 7.3 µM
2.1 µM and 1.4 µM and 2.5 µM and 0.9 µM | 1.73 µM | 4.3 µM and 3.7 µM | – | O=C1C(Cl)=C(Nc2ccc(S(=O)(=O)Nc3ccccn3)cc2)C(=O)c2ccccc21 [PI-083, reference compound] | selective inhibition of tumor cell lines over normal cells [2]: selective inhibition; Chymotrypsin-like Activity Inhibition at 30 μM [1, 6]: 86% and 83%; inhibition at 30 µM [1, 6]: 87%
26 µM and > 100 µM and 28 µM | – | – | 134 to 136 °C | O=S(=O)(Nc1cc(I)c(O)c2ccccc12)c1cccs1 [YG1-033, N-(3-iodo-4-hydroxynaphthalen-1-yl)thiophene-2-sulfonamide] | –
1.04 µM and 1.86 µM and 2.06 µM and 2.35 µM and 3.8 µM | 2.22 µM | – | 93 to 95 °C | CCOC(=O)CSC1=C/C(=N\S(=O)(=O)c2ccccc2)c2ccccc2C1=O [YG1-110, Ethyl 2-(1-oxo-4-(phenylsulfonylimino)-1,4-dihydronaphthalen-2-ylthio)acetate] | –
1.74 µM and 7 µM and 8.7 µM and 2.75 µM and 6.4 µM | – | – | 118 to 120 °C | CCOC(=O)CSc1cc(NS(=O)(=O)c2ccccc2)c2ccccc2c1O [YG1-113, Ethyl 2-(1-hydroxy-4-(phenylsulfonamido)naphthalen-2-ylthio)acetate] | proteasome inhibitory activity, SAR statement in words [1]: reduced compared to acid analogues
7.4 µM | – | – | 185 °C (dec.) | O=C(O)CCSc1cc(NS(=O)(=O)c2cccs2)c2ccccc2c1O [YG1-116, 3-(1-hydroxy-4-(thiophene-2-sulfonamido)naphthalen-2-ylthio)propanoic acid] | proteasome inhibitory activity, SAR statement in words [1]: the inhibitory activity diminished
> 10 µM | – | – | 195 °C (dec.) | O=C1C(N2CCOCC2)=C/C(=N\S(=O)(=O)c2cccs2)c2ccccc21 [YG1-129, N-(3-morpholino-4-oxonaphthalen-1(4H)-ylidene)thiophene-2-sulfonamide] | –
0.81 µM and 2.48 µM and 2.28 µM and 1.74 µM and 2.2 µM | – | > 100 µM and 83 µM | – | O=C(O)CSc1cc(NS(=O)(=O)c2ccc(-c3ccccc3)cc2)c2ccccc2c1O [YG1-152, 2-(4-(biphenyl-4-ylsulfonamido)-1-hydroxynaphthalen-2-ylthio)acetic acid] | IC50 ([1]; value quoted in running text / FIG. 11, read-out: IC50 against chymotrypsin-like proteasome activity): 1.9 µM
0.73 µM and 2.42 µM and 2.7 µM and 2.3 µM and 2.2 µM | 2.07 µM | 8 µM and 10 µM | – | O=C(O)CSc1cc(NS(=O)(=O)c2ccc(Cl)s2)c2ccccc2c1O [YG1-153, 2-(4-(5-chlorothiophene-2-sulfonamido)-1-hydroxynaphthalen-2-ylthio)acetic acid] | –
1.34 µM and 4.38 µM and 3.85 µM and 2.1 µM and 2.09 µM | 2.75 µM | – | 197 °C (dec.) | O=C1C(Sc2ncn[nH]2)=C/C(=N\S(=O)(=O)c2cccs2)c2ccccc21 [YG1-158-2, N-(3-(1H-1,2,4-triazol-5-ylthio)-4-oxonaphthalen-1(4H)-ylidene)thiophene-2-sulfonamide] | –
2.11 µM and 6.45 µM and 6.6 µM and 6.55 µM and 1.54 µM and 2.18 µM | – | 6.4 µM | – | Cn1nnnc1Sc1cc(NS(=O)(=O)c2cccs2)c2ccccc2c1O [YG1-159-1, N-(4-hydroxy-3-(1-methyl-1H-tetrazol-5-ylthio)naphthalen-1-yl)thiophene-2-sulfonamide] | proteasome inhibitory activity, SAR statement in words [1]: comparable inhibition potency
2.32 µM and 2.44 µM and 1.84 µM | – | – | 205 °C (dec.) | O=C(O)c1ccccc1Sc1cc(NS(=O)(=O)c2ccc(-c3ccccc3)cc2)c2ccccc2c1O [YG1-168, 2-(4-(biphenyl-4-ylsulfonamido)-1-hydroxynaphthalen-2-ylthio)benzoic acid] | –
9.5 µM and > 10 µM and 8 µM | – | – | 177 to 179 °C | CC(Sc1cc(NS(=O)(=O)c2ccc(Cl)cc2)c2ccccc2c1O)C(=O)O (stereo not shown) [YG2-024-1, 2-(4-(4-chlorophenylsulfonamido)-1-hydroxynaphthalen-2-ylthio)propanoic acid] | decrease of proteasome inhibition activity [1]: ~2 fold
9.6 µM and 8.45 µM | – | – | 176 to 178 °C | CC(Sc1cc(NS(=O)(=O)c2ccc3ccccc3c2)c2ccccc2c1O)C(=O)O (stereo not shown) [YG2-024-2, 2-(1-hydroxy-4-(naphthalene-2-sulfonamido)naphthalen-2-ylthio)propanoic acid] | decrease of proteasome inhibition activity [1]: ~2 fold
> 10 µM and 4 µM and 5.9 µM | – | – | 185 to 187 °C | O=C(O)CSc1cc(NS(=O)(=O)c2ccc3ccccc3c2)c2ccccc2c1O [YG2-034-2, 2-(1-hydroxy-4-(naphthalene-2-sulfonamido)naphthalen-2-ylthio)acetic acid] | decrease of proteasome inhibition activity [1]: 3 fold
> 10 µM | – | – | 120 to 122 °C | CC(C)(C)OC(=O)COC1=CC(=O)c2ccccc2C1=O [YL2-013, tert-Butyl 2-(1,4-dioxo-1,4-dihydronaphthalen-2-yloxy)acetate] | –
> 10 µM | – | – | – | O=C(O)COc1cc(NS(=O)(=O)c2cccs2)c2ccccc2c1O [YL2-030, 2-(1-hydroxy-4-(thiophene-2-sulfonamido)naphthalen-2-yloxy)acetic acid] | proteasome inhibitory activity, SAR statement in words [1]: diminished the inhibitory activity
2.46 µM and 7.24 µM and 7.9 µM and 9.8 µM and > 10 µM and 1.24 µM and 1.81 µM | 5.08 µM | – | – | N-(3-(1-methyl-1H-tetrazol-5-ylthio)-4-oxonaphthalen-1(4H)-ylidene)thiophene-2-sulfonamide [YG1-158-1] | –
> 10 µM | – | – | – | N-(3-(ethylthio)-4-hydroxynaphthalen-1-yl)thiophene-2-sulfonamide [YG2-087-1] | –

Compound | IC50 [1, 3] | IC50 [1, 4] | IC50 (CT-L; [5]) | melting point | further results
O=C(O)c1ccccc1Sc1cc(NS(=O)(=O)c2cccs2)c2ccccc2c1O [YG1-155, 2-(1-hydroxy-4-(thiophene-2-sulfonamido)naphthalen-2-ylthio)benzoic acid] | 1.12 µM and 4.6 µM and 5.32 µM and 7.7 µM and 7.1 µM and 1.04 µM and 1.5 µM | 4.05 µM | – | 215 °C (dec.) | –
O=S(=O)(Nc1cc(Sc2ncn[nH]2)c(O)c2ccccc12)c1cccs1 [YG1-159-2, N-(3-(1H-1,2,4-triazol-5-ylthio)-4-hydroxynaphthalen-1-yl)thiophene-2-sulfonamide] | 1.4 µM and 6.55 µM and 7.4 µM and 5.6 µM and 6.6 µM and 0.85 µM and 1.12 µM | 4.22 µM | 4.8 µM and 5.1 µM | – | proteasome inhibitory activity, SAR statement in words [1]: comparable inhibition potency
